# Experimental data published in patent US20200248178A1, “COMBINATION THERAPIES FOR TREATING MUSCULAR DYSTROPHY” (Sarepta Therapeutics, Inc., priority 2017, published 2020).
# Values joined by “and” are separate entries in the source; they are usually repeats but may differ in a detail not shown here. Equal values may be shown once.
# Columns and labels:
# NF-κB pathways = settings: phase I, adults; cited from earlier work
# Mdx mice = settings: cited from earlier work
# NF-κB = settings: cited from earlier work
# cNF-κB = settings: cited from earlier work
# patient cells = settings: cited from earlier work
# mouse model of DMD = settings: cited from earlier work
# [1] = test system: exon 51 of dystrophin pre-mRNA; settings: normal human skeletal muscle cells or DMD patient muscle cells; cited from earlier work
# immune response = test system: immune response; set-up: species or system juvenile rats; settings: rat, in vivo
# Text: Phosphorothioates are known to cause a number of other target organ toxicities in animals, including complement activation and pro-inflammatory effects, coagulopathies, thrombocytopenia, vascular injury, and hepatic Kuppfer cell basophilia (Levin 1998; Monteith 1999; Levin 2001; Henry 2008; Frazier 2014; Engelhardt 2015; Frazier 2015).
# DMD patients [2] = test: North Star Ambulatory Assessment (NSAA); type: in vivo, human; settings: end of year three; vs Italian Telethon group
# Text: The NSAA is a clinician-reported outcome instrument specifically designed to measure function in ambulatory patients with DMD. The 17 items are each scored on a 0-2 ordinal scale and include assessments of abilities such as rising from the floor, climbing and descending a step, 10 meter walk/run and lifting the head. Over the first year, both the eteplirsen treated boys and the Italian Telethon group declined at a similar rate. However, following year one, as was observed on 6MWT, the decline in function for the eteplirsen group slowed and by the end of year three there was a 2.4 point greater decline for the untreated boys. This difference is of clinical relevance and may represent loss or impairment of up to 2 activities of daily living.
# [3] = test system: exon 51 of dystrophin pre-mRNA; settings: hDMD mouse model; cited from earlier work
# DMD patients [4] = test: Ability to rise from supine without external support; type: in vivo, human; settings: by year three; external control 8%
# Text: The ability to rise from supine is a critical activity for DMD patients, is one of the early abilities to be lost and may be predictive of loss of ambulation. In an analysis comparing the ability to rise from a supine position (without external support), 92% of eteplirsen treated vs 85% external control patients had the ability to rise without external support at baseline. By year three, 55% of eteplirsen vs 8% of external control patients had the ability to rise without external support.
# [5] = test system: DMD patients amenable to exon 51 skipping; test: 6 Minute Walk Test, Study 201/202 vs external control; type: in vivo, human
# Experimental: In Study 1, patients were randomized to receive weekly infusions of EXONDYS 51° (30 mg/kg, n=4); EXONDYS 51° (50 mg/kg, n=4), or placebo (n=4) for 24 weeks. The primary endpoint was dystrophin production; a clinical outcome measure, the 6-minute walk test (6MWT), was also assessed. The 6MWT measures the distance that a patient can walk on a flat, hard surface in a period of 6 minutes.
# (§1) All 12 patients who participated in Study 1 continued treatment with open-label EXONDYS 51® weekly for an additional 4 years in Study 2. The 4 patients who had been randomized to placebo were re-randomized 1:1 to EXONDYS 51® 30 or 50 mg/kg/week such that there were 6 patients on each dose. Patients who participated in Study 2 were compared to an external control group. The primary clinical efficacy outcome measure was the 6MWT. […] The average dystrophin protein level after 180 weeks of treatment with EXONDYS 51® was 0.93% of the dystrophin level in healthy subjects.
# The pre-specified criteria for identification of patients for the external control groups were based on the inclusion criteria for Study 201/202. These included baseline age, steroid use and specific DMD mutation. Each of these represent key prognostic factors that enable identification of a relatively homogenous population that would be expected to decline on the 6MWT.
# A group with DMD mutations amenable to exon 51 skipping therapy (N=13, primary external control group).
# The 6MWT assessments in both Study 201/202 and the external registries were conducted in a standardized manner according to international guidelines.
# DMD patients [6] = test: Pulmonary function tests (FVC % predicted); type: in vivo, human; settings: literature >5% annual decline
# Text: In some embodiments, MEP may decline before changes in other pulmonary function tests, including MIP and FVC. In certain embodiments, MEP may be an early indicator of respiratory dysfunction. In certain embodiments, FVC may be used to measure the total volume of air expelled during forced exhalation after maximum inspiration. In patients with DMD, FVC increases concomitantly with physical growth until the early teens. However, as growth slows or is stunted by disease progression, and muscle weakness progresses, the vital capacity enters a descending phase and declines at an average rate of about 8 to 8.5 percent per year after 10 to 12 years of age. In certain embodiments, MIP percent predicted (MIP adjusted for weight), MEP percent predicted (MEP adjusted for age) and FVC percent predicted (FVC adjusted for age and height) are supportive analyses.
# Respiratory function in DMD is progressively impaired over time as the dystrophic process affects respiratory muscles, including the diaphragm, leading to significant morbidity and mortality. Eteplirsen treated boys had slower deterioration of respiratory muscle function as measured by FVC % predicted (decrease of ˜2.5% per year) when compared to data from the published literature (>5% annual decline). […]
# dystrophin [7] = test: Study 201/202 Week 180 biopsy, IHC percent dystrophin positive fibers (PDPF); type: in vivo, human
# Experimental: (§2) In order to obtain a comprehensive view of dystrophin expression, biopsies from Study 201/202 were analyzed by three complementary assays. First, Western blot was used to quantitate dystrophin following extraction of protein from muscle tissue. Second, immunohistochemical (IHC) images were evaluated by trained, blinded pathologists to assess the percent dystrophin positive fibers (PDPF), providing information on sarcolemma localization and distribution of dystrophin in muscle fibers. Finally, the IHC images were also assessed by a computer algorithm to measure fiber intensity and to quantify dystrophin at the sarcolemmal membrane.
# [8] = test system: DMD patients amenable to exon 51 skipping; test: Loss of ambulation, Study 201/202 vs external controls; type: in vivo, human
# Text: Ambulatory compromise and irreversible loss of ambulation (LOA) are hallmarks of the progressive muscle degeneration characteristic of DMD. It is a reliable overall indicator of the severity of disease progression and strongly correlates with functional measures such as the 6MWT; it is also less influenced by motivational factors. Furthermore, LOA predicts other major disease milestones such as the need for ventilatory support and survival (Bello 2016). Once confined to a wheelchair, other symptoms tend to follow in rapid succession. Consistent with results of the 6MWT, fewer eteplirsen treated boys lost ambulation (2/12) compared to the external control patients who were amenable to exon 51 skipping therapy (10/13) over the four year time period.
# Kaplan-Meier analyses for loss of ambulation were conducted, accounting for missing data. At year three the estimated probability for loss of ambulation was 17% for eteplirsen treated boys compared to 46% of boys from both external control cohorts. At year four, Kaplan-Meier estimates of loss of ambulation was 17% for eteplirsen treated boys compared to 85% for the external control boys amenable to exon 51 skipping. This difference in loss of ambulation over the 4-year period was statistically significant, with a nominal p-value of 0.011 (FIG. 8).
# dystrophin [9] = test: Study 3 (Study 301): dystrophin in muscle biopsy by Western blot; type: in vivo, human
# Experimental: Dystrophin levels in muscle tissue were assessed by Western blot. In the 12 patients with evaluable results, the pre-treatment dystrophin level was 0.16%±0.12% (mean±standard deviation) of the dystrophin level in a healthy subject and 0.44%±0.43% after 48 weeks of treatment with EXONDYS 51® (p<0.05). The median increase after 48 weeks was 0.1%.
# dystrophin [10] = test: Study 201/202 Week 180 muscle biopsy, Western blot; type: in vivo, human
# Experimental: as §1, §2
# dystrophin [11] = test: Study 201/202 Week 180 biopsy, IHC fiber intensity; type: in vivo, human
# Experimental: as §2
compound,measurement,setting,value
"CC/C=C\C/C=C\C/C=C\C/C=C\C/C=C\C/C=C\CCC(=O)NCCNC(=O)c1ccccc1O [CAT-1004, N-(2-[(4Z,7Z,10Z,13Z,16Z,19Z)-docosa-4,7,10,13,16,19-hexaenamido]ethyl)-2-hydroxybenzamide]",safety and tolerability,NF-κB pathways,"safe, well tolerated"
CC/C=C\C/C=C\C/C=C\C/C=C\C/C=C\CCCC(=O)NCCNC(=O)c1ccccc1O [CAT-1041],exercise endurance,Mdx mice; mdx mice,increased exercise endurance
same,inflammation and fibrosis,Mdx mice; mdx mice,reduced inflammation and fibrosis
same,muscle function,Mdx mice; mdx mice,preserves muscle function
same,muscle fibrosis,"Mdx mice; mdx mice, long-term studies",reduces muscle fibrosis
same,skeletal muscle weight,"Mdx mice; mdx mice, long-term studies",increases skeletal muscle weight
same,phenotype,"Mdx mice; mdx mouse, long-term treatment",improves the phenotype
same,diaphragm function,Mdx mice; mouse DMD model,improved diaphragm function
same,phenotype,"NF-κB; GRMD dog, long-term treatment",improves the phenotype
same,diaphragm function,NF-κB; dog DMD model,improved diaphragm function
same,cNF-κB activation in vitro,cNF-κB,inhibit cNF-κB activation in vitro
O=C1CN(/N=C/c2ccc(-c3ccc([N+](=O)[O-])cc3)o2)C(O)=N1 [dantrolene],antisense-mediated exon skipping,patient cells,enhance antisense-mediated exon skipping
same,antisense-mediated exon skipping,mouse model of DMD,enhance antisense-mediated exon skipping
Eteplirsen,induction of exon 51 skipping in vitro,[1],potent inducer of exon 51 skipping
same,effect on the immune response,immune response,no adverse effect on the immune response
same,NSAA: greater decline for the untreated boys,DMD patients [2],2.4 point
same,exon 51 skipping in vivo,[3],confirmed in vivo
same,patients with ability to rise without external support,DMD patients [4],55%
same,6MWT treatment benefit in sensitivity analyses,"[5]; four year results, covariates age, 6MWT, steroid use",> 100 meter
same,6MWT advantage vs external control,"[5]; year four, p=0.0005",162 meter
same,6MWT advantage vs external control,"[5]; year three, N=12 vs N=13, p=0.005",148 meter
same,FVC % predicted decrease,DMD patients [6],~2.5 % per year
same,Difference of Means (Treated vs. Untreated),dystrophin [7],+16.27%
same,Treated (Mean % Dystrophin of Normal),dystrophin [7],17.39%
same,Fold Increase,dystrophin [7]; treated vs untreated,15.5 fold
same,boys who lost ambulation,"[8]; over a three year time period, external control (any exon skipping) 18/50",2/12
same,boys who lost ambulation,"[8]; over the four year time period, external control 10/13",2/12
same,Kaplan-Meier estimate of loss of ambulation,"[8]; year four, external control 85%, p 0.011",17%
same,Kaplan-Meier estimated probability for loss of ambulation,"[8]; year three, external controls 46%",17%
same,Week 48 % normal dystrophin,"dystrophin [9]; 30 mg/kg weekly, week 48, individual patients 1-12 and mean, listed as EXONDYS 51, 30 mg/kg",0.10 % normal dystrophin and 1.02 % normal dystrophin and 0.30 % normal dystrophin and 0.42 % normal dystrophin and 1.57 % normal dystrophin and 0.12 % normal dystrophin and 0.47 % normal dystrophin and 0.09 % normal dystrophin and 0.21 % normal dystrophin and 0.26 % normal dystrophin and 0.36 % normal dystrophin and 0.37 % normal dystrophin
same,median increase in dystrophin after 48 weeks,dystrophin [9]; 12 evaluable patients,0.1%
same,dystrophin level after 48 weeks of treatment (mean±standard deviation),"dystrophin [9]; 12 evaluable patients, 30 mg/kg weekly, p<0.05 vs pre-treatment",0.44%±0.43%
same,Change from Baseline % normal dystrophin,"dystrophin [9]; week 48 vs pre-treatment baseline, individual patients 1-12 and mean, listed as EXONDYS 51",0.06 % normal dystrophin and 0.85 % normal dystrophin and −0.07 % normal dystrophin and 0.25 % normal dystrophin and 1.33 % normal dystrophin and 0.01 % normal dystrophin (2×) and 0.43 % normal dystrophin and 0.07 % normal dystrophin and 0.03 % normal dystrophin and 0.13 % normal dystrophin and 0.31 % normal dystrophin
same,Difference of Means (Treated vs. Untreated),"dystrophin [10]; Western Blot, Week 180",+0.85%
same,Treated (Mean % Dystrophin of Normal),"dystrophin [10]; Western Blot, Week 180",0.93%
same,Fold Increase in de novo dystrophin,"dystrophin [10]; Western Blot, Week 180, relative to untreated controls",11.6 fold
same,average dystrophin protein level after 180 weeks of treatment,"dystrophin [10]; Western blot, eleven patients, 30 or 50 mg/kg/week",0.93 % of the dystrophin level in healthy subjects
same,Difference of Means (Treated vs. Untreated),dystrophin [11],+13.20%
same,Treated (Mean % Dystrophin of Normal),dystrophin [11],22.61%
same,Fold Increase,dystrophin [11]; treated vs untreated,2.4 fold
